Legend:
MAP3K7 (human) = MAP3K7 (human) (UniProt O43318); assay: KINOMEscan competition binding; settings: compound 1.0 µM
CAMKK1 (human) = CAMKK1 (human) (UniProt Q8N5S9); assay: KINOMEscan competition binding; settings: compound 1.0 µM
IKBKE (human) = IKBKE (human) (UniProt Q14164); assay: KINOMEscan competition binding; settings: compound 1.0 µM
[1] = test system: EGFR (human), P00533 [T790M/L858R]; assay: KINOMEscan competition binding; settings: compound 1.0 µM
AURKC (human) = AURKC (human) (UniProt Q9UQB9); assay: KINOMEscan competition binding; settings: compound 1.0 µM
Sequence of AURKC (human) (Q9UQB9 whole entry, looked up): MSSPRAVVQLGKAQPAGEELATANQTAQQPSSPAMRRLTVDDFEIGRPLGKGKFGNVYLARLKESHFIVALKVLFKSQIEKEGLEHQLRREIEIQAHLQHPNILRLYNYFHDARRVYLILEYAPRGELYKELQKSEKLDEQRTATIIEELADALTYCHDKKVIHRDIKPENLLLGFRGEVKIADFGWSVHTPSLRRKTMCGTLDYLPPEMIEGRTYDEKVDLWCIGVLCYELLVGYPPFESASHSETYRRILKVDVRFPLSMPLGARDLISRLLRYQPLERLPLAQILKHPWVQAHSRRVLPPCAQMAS

STK17A (human) = STK17A (human) (UniProt Q9UEE5); assay: KINOMEscan competition binding; settings: compound 1.0 µM
CDK14 (human) = CDK14 (human) (UniProt O94921); assay: KINOMEscan competition binding; settings: compound 1.0 µM
SRC (human) = SRC (human) (UniProt P12931); assay: KINOMEscan competition binding; settings: compound 1.0 µM
[2] = test system: EGFR (human), P00533 [L858R]; assay: KINOMEscan competition binding; settings: compound 1.0 µM
PAK3 (human) = PAK3 (human) (UniProt O75914); assay: KINOMEscan competition binding; settings: compound 1.0 µM
HIPK3 (human) = HIPK3 (human) (UniProt Q9H422); assay: KINOMEscan competition binding; settings: compound 1.0 µM
[3] = test system: MET (human), P08581 [M1250T]; assay: KINOMEscan competition binding; settings: compound 1.0 µM
RIPK1 (human) = RIPK1 (human) (UniProt Q13546); assay: KINOMEscan competition binding; settings: compound 1.0 µM
STK36 (human) = STK36 (human) (UniProt Q9NRP7); assay: KINOMEscan competition binding; settings: compound 1.0 µM
WNK1 (human) = WNK1 (human) (UniProt Q9H4A3); assay: KINOMEscan competition binding; settings: compound 1.0 µM
PIP5K1C (human) = PIP5K1C (human) (UniProt O60331); assay: KINOMEscan competition binding; settings: compound 1.0 µM
TAOK1 (human) = TAOK1 (human) (UniProt Q7L7X3); assay: KINOMEscan competition binding; settings: compound 1.0 µM
CAMK2D (human) = CAMK2D (human) (UniProt Q13557); assay: KINOMEscan competition binding; settings: compound 1.0 µM
DYRK2 (human) = DYRK2 (human) (UniProt Q92630); assay: KINOMEscan competition binding; settings: compound 1.0 µM
MATK (human) = MATK (human) (UniProt P42679); assay: KINOMEscan competition binding; settings: compound 1.0 µM
TNNI3K (human) = TNNI3K (human) (UniProt Q59H18); assay: KINOMEscan competition binding; settings: compound 1.0 µM
STK4 (human) = STK4 (human) (UniProt Q13043); assay: KINOMEscan competition binding; settings: compound 1.0 µM
SGK3 (human) = SGK3 (human) (UniProt Q96BR1); assay: KINOMEscan competition binding; settings: compound 1.0 µM
[4] = test system: KIT (human), P10721 [A829P]; assay: KINOMEscan competition binding; settings: compound 1.0 µM
PRKCH (human) = PRKCH (human) (UniProt P24723); assay: KINOMEscan competition binding; settings: compound 1.0 µM
PIP4K2C (human) = PIP4K2C (human) (UniProt Q8TBX8); assay: KINOMEscan competition binding; settings: compound 1.0 µM
Sequence of PIP4K2C (human) (Q8TBX8 whole entry, looked up): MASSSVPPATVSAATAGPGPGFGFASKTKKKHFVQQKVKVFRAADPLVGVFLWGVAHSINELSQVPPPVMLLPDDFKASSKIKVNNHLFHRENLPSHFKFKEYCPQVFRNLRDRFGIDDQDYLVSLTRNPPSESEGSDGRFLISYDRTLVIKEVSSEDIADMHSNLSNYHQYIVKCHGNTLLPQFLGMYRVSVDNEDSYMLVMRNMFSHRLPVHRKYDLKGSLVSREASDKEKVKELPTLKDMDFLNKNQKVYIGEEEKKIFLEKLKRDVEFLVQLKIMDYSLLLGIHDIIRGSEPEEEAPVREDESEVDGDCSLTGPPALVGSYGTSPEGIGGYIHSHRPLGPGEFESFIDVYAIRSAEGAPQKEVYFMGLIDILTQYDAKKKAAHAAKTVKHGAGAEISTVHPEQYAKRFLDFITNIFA

CAMK2B (human) = CAMK2B (human) (UniProt Q13554); assay: KINOMEscan competition binding; settings: compound 1.0 µM
FGFR4 (human) = FGFR4 (human) (UniProt P22455); assay: KINOMEscan competition binding; settings: compound 1.0 µM
[5] = test system: EGFR (human), P00533 [747-751 del / S ins]; assay: KINOMEscan competition binding; settings: compound 1.0 µM
RIPK2 (human) = RIPK2 (human) (UniProt O43353); assay: radiometric filter-binding kinase assay; settings: compound 1.0 µM
CSNK1G2 (human) = CSNK1G2 (human) (UniProt P78368); assay: radiometric filter-binding kinase assay
Sequence of CSNK1G2 (human) (P78368 whole entry, looked up): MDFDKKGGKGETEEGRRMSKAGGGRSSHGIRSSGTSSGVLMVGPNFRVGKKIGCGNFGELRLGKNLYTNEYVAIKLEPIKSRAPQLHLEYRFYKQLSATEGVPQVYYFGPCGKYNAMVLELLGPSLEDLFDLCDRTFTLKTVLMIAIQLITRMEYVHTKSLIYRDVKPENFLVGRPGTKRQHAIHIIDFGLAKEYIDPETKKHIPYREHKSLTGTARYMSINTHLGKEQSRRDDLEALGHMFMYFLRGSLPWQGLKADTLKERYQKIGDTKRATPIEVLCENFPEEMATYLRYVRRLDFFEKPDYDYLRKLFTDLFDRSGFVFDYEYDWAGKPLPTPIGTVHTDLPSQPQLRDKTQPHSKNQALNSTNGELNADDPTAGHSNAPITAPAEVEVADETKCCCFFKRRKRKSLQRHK

INSR (human) = INSR (human) (UniProt P06213); assay: radiometric filter-binding kinase assay
Sequence of INSR (human) (P06213 whole entry, looked up): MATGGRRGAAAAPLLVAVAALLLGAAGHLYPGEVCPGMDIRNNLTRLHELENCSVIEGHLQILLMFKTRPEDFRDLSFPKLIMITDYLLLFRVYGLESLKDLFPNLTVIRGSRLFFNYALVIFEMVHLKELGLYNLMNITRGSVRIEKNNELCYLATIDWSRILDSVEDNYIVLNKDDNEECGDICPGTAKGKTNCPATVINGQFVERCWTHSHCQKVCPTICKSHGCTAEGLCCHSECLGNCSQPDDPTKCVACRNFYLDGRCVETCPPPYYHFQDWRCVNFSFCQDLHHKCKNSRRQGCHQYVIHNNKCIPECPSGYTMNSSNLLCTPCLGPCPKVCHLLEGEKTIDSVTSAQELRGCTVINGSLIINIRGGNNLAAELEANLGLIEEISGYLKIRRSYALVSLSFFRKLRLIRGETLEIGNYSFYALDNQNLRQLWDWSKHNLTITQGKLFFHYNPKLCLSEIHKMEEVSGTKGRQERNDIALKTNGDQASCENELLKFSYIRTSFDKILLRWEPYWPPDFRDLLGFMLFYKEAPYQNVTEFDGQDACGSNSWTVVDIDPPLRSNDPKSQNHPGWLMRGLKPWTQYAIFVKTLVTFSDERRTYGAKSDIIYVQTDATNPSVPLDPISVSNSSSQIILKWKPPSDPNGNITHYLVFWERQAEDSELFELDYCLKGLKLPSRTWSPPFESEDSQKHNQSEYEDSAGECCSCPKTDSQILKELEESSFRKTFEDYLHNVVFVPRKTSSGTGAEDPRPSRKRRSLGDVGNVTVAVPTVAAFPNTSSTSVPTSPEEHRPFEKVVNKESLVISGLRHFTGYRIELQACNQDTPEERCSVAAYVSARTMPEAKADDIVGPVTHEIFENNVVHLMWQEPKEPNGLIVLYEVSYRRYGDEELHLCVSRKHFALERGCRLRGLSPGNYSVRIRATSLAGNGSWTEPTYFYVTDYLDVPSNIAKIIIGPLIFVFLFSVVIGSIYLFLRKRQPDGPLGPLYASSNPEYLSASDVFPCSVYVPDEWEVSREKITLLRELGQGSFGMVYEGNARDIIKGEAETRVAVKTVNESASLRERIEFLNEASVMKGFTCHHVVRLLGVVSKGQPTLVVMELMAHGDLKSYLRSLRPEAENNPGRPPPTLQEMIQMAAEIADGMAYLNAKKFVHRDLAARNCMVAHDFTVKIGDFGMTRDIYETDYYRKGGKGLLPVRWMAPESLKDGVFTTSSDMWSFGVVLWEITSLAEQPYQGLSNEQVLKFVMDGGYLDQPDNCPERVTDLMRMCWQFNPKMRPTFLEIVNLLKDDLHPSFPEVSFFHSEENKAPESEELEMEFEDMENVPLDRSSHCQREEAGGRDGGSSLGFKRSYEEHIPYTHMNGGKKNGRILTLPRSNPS

TTK (human) = TTK (human) (UniProt P33981); assay: radiometric filter-binding kinase assay
Sequence of TTK (human) (P33981 whole entry, looked up): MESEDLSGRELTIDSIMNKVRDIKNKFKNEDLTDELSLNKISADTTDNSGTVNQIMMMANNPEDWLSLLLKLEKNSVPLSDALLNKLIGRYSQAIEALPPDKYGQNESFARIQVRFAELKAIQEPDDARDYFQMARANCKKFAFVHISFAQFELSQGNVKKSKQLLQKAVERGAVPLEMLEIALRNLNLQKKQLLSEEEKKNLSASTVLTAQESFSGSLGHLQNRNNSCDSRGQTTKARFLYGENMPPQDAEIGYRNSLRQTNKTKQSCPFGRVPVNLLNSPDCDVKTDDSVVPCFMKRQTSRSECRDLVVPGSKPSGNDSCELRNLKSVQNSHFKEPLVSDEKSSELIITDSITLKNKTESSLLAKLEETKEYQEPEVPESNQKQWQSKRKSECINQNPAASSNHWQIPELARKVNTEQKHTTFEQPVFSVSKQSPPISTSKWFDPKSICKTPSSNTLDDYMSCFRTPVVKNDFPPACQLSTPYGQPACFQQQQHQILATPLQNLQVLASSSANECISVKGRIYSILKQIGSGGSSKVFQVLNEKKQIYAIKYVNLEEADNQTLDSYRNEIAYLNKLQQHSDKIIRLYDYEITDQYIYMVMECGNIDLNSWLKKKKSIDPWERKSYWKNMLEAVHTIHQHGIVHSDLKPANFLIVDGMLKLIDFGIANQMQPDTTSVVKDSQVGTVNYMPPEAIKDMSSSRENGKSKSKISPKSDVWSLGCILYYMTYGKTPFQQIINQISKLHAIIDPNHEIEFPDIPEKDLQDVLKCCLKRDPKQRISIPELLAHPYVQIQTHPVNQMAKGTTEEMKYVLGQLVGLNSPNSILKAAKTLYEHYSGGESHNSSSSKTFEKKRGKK

STK24 (human) = STK24 (human) (UniProt Q9Y6E0); assay: radiometric filter-binding kinase assay; settings: compound 1.0 µM
MAPKAPK5 (human) = MAPKAPK5 (human) (UniProt Q8IW41); assay: radiometric filter-binding kinase assay
Sequence of MAPKAPK5 (human) (Q8IW41 whole entry, looked up): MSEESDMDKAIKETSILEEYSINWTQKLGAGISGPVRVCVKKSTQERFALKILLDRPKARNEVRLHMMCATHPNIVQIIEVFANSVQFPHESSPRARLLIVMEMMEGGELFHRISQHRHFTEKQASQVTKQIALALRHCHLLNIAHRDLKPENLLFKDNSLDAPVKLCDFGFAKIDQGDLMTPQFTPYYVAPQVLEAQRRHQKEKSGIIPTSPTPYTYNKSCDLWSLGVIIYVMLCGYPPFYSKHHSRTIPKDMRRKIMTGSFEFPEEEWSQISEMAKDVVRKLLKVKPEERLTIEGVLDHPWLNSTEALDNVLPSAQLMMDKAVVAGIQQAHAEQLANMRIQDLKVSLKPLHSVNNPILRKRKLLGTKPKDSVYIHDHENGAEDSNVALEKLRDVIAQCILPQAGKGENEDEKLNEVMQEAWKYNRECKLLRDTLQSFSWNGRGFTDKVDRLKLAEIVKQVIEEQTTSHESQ

CSNK2A1 (human) = CSNK2A1 (human) (UniProt P68400); assay: radiometric filter-binding kinase assay
Sequence of CSNK2A1 (human) (P68400 whole entry, looked up): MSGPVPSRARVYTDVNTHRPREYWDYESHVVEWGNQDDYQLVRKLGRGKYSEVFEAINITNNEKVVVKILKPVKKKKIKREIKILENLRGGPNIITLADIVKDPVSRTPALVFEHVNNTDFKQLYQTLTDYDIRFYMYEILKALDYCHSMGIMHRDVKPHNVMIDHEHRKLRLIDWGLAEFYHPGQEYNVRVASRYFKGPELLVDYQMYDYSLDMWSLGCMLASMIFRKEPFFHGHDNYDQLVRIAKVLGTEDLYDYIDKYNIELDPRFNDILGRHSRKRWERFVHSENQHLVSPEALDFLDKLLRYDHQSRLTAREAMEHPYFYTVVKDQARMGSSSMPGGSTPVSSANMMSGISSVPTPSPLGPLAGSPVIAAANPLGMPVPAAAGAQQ

STK11 (human) = STK11 (human) (UniProt Q15831); assay: radiometric filter-binding kinase assay
Sequence of STK11 (human) (Q15831 whole entry, looked up): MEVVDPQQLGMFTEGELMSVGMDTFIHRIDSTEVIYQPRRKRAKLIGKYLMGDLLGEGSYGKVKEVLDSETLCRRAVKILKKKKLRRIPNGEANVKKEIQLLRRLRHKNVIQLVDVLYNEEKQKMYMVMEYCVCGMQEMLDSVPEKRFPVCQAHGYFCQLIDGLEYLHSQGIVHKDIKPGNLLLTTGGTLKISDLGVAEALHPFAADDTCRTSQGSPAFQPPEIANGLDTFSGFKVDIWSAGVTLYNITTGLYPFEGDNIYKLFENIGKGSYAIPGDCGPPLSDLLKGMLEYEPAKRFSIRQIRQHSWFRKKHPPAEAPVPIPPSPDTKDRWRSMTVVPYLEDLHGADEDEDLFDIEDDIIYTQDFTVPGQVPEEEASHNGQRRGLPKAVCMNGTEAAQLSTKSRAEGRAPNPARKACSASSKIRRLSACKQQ

CNc1nc(Nc2ccc(C(=O)N3CCOCC3)cc2OC)ncc1Cl
kinase still bound, per cent of control (MAP3K7 (human)): 79%
kinase still bound, per cent of control (CAMKK1 (human)): 79%
kinase still bound, per cent of control (IKBKE (human)): 86%
kinase still bound, per cent of control [1]: 100%
kinase still bound, per cent of control (AURKC (human)): 88%
kinase still bound, per cent of control (STK17A (human)): 53%
residual activity (CDK14 (human)): 100%
kinase still bound, per cent of control (SRC (human)): 100%
kinase still bound, per cent of control [2]: 100%
kinase still bound, per cent of control (PAK3 (human)): 88%
kinase still bound, per cent of control (HIPK3 (human)): 47%
kinase still bound, per cent of control [3]: 100%
kinase still bound, per cent of control (RIPK1 (human)): 100%
kinase still bound, per cent of control (STK36 (human)): 100%
kinase still bound, per cent of control (WNK1 (human)): 100%
kinase still bound, per cent of control (PIP5K1C (human)): 99%
kinase still bound, per cent of control (TAOK1 (human)): 99%
kinase still bound, per cent of control (CAMK2D (human)): 87%
kinase still bound, per cent of control (DYRK2 (human)): 91%
kinase still bound, per cent of control (MATK (human)): 100%
kinase still bound, per cent of control (TNNI3K (human)): 54%
kinase still bound, per cent of control (STK4 (human)): 100%
kinase still bound, per cent of control (SGK3 (human)): 100%
kinase still bound, per cent of control [4]: 93%
kinase still bound, per cent of control (PRKCH (human)): 100%
kinase still bound, per cent of control (PIP4K2C (human)): 100%
kinase still bound, per cent of control (CAMK2B (human)): 89%
kinase still bound, per cent of control (FGFR4 (human)): 52%
kinase still bound, per cent of control [5]: 100%
residual activity (RIPK2 (human)): 79%
residual activity (CSNK1G2 (human); compound 1.0 µM): 96%
residual activity (CSNK1G2 (human); compound 10.0 µM): 93%
residual activity (INSR (human); compound 1.0 µM): 86%
residual activity (INSR (human); compound 10.0 µM): 50%
residual activity (TTK (human); compound 1.0 µM): 71%
residual activity (TTK (human); compound 10.0 µM): 57%
residual activity (STK24 (human)): 83%
residual activity (MAPKAPK5 (human); compound 1.0 µM): 91%
residual activity (MAPKAPK5 (human); compound 10.0 µM): 44%
residual activity (CSNK2A1 (human); compound 1.0 µM): 50%
residual activity (CSNK2A1 (human); compound 10.0 µM): 88%
residual activity (STK11 (human); compound 1.0 µM): 92%
residual activity (STK11 (human); compound 10.0 µM): 90%

From the kinase profiling compilation of Christmann-Franck et al. (2016)
